# Results as given in US8304557B2, “Fused heterocycle derivatives and use thereof” (Takeda Pharmaceutical Company Limited, priority 2007, dated 2012).
# Tests used:
# [1] = target: VEGFR2 intracellular domain protein (Homo sapiens, UniProt P35968); experiment: VEGF receptor 2 kinase inhibitory activity (AlphaScreen); conditions: read-out: The inhibitory rate of the compounds at 1 μM (VEGF receptor 2 kinase)
# Protocol: Human vascular endothelial growth factor receptor 2 (hereinafter to be referred to as VEGFR2) gene was cloned by PCR using cDNA Libraries Human Placenta (Clontech) as a template.
# The PCR reaction was conducted using a KOD-plus kit (TOYOBO). […] Furthermore, using BAC-TO-BAC Baculovirus Expression System (Invitrogen), virus stock BAC-VEGFR2 of recombinant baculovirus was prepared.
# SF-21 cells were sown at 1×10^6 cells/mL to Sf-900II SEM medium (1 L, Invitrogen) containing 10% fetal bovine serum (trace), 50 mg/L Gentamicin (Invitrogen) and 0.1% Pluronic F-68 (Invitrogen), and shaking culture was performed using a 2 L volume Erlenmeyer flask at 27° C., 100 rpm. After culturing for 24 hrs, recombinant baculovirus BAC-VEGFR2 (13.4 mL) was added to the mixture, and the mixture was further cultured for 3 days. The culture medium was centrifuged at 2,000 rpm for 5 min to give virus-infected cells. The infected cells were washed with a phosphate buffered saline (Invitrogen), centrifuged under the same conditions, and the cells were preserved at −80° C. The cryopreserved cells were thawed in ice, suspended in buffer A (50 mM Tris buffer (30 mL, pH 7.4) containing 20% glycerol, 0.15 M NaCl) supplemented with Complete Protease Inhibitor (Boehringer), and ruptured 3 times with a Polytron homogenizer (Kinematica) at 20,000 rpm for 30 sec. The ruptured medium was clarified by centrifugation at 40,000 rpm for 30 min and filtered with a 0.45 μm filter. The filtrate was passed through a column packed with Anti-FLAG M2 Affinity Gel (4 mL, Sigma) at a flow rate of about 0.5 mL/min. The column was washed with buffer A, and eluted with buffer A containing 100 μg/mL of FLAG peptide. The eluate was concentrated with Vivaspin 20 (Vivascience) having a molecular weight cut off of 30K. The buffer of this concentrate was exchanged using NAP™ 25 column (Amersham Bioscience) equilibrated with buffer A. The fractions containing intracellular domain protein of VEGFR2 were collected, glycerol was added to the final concentration of 50% and cryopreserved at −80° C.
# A test compound dissolved in DMSO was diluted with a buffer (50 mM Tris-HCl (pH 7.5), 5 mM MgCl2, 5 mM MnCl2, 2 mM dithiothreitol, 0.01% Tween-20). To this compound solution (5 μL) was added a buffer (10 μL) containing 50 ng/mL of VEGFR2 intracellular domain protein and 250 ng/mL of biotin labeled polypeptide biotinyl-poly-Glu:Tyr (4:1, CIS bio International). […] The reaction solution was allowed to stand at 25° C. for 16 hrs, and the wells were counted using a plate reader Fusion™ (PerkinElmer). The kinase inhibitory rate (%) of the test compound was calculated by the following formula: Inhibitory rate(%)=(1−(count of test compound−blank)÷(control−blank))×100
# [2] = system: Human umbilical vein vascular endothelial cells (HUVEC); experiment: Vascular endothelial cell growth inhibitory test (VEGF-stimulated HUVEC, WST-8); assay type: cell-based; conditions: 120 h, VEGF 120 ng/mL solution added, 5 days of culture, read-out: IC50 value, vascular endothelial cell growth inhibition
# Protocol: To be specific, HUVEC was suspended in a vascular endothelial cell medium containing the aforementioned 3% bovine fetal serum and plated in a 96 well flat bottom plate by 50 μL (3000 cells) each well. After culture overnight, various concentrations of the test substance and 120 ng/mL of vascular endothelial growth factor (VEGF) were dissolved in a vascular endothelial cell medium containing 3% bovine fetal serum and added to each well by 50 μL. […] The absorbance at 450 nm was measured by a microtiter plate reader and the cell growth inhibitory activity was determined.
# [3] = target: T1, Platelet-derived growth factor receptor α (PDGFRα) intracellular domain protein (Homo sapiens, UniProt P16234); experiment: PDGFRα kinase inhibitory activity (AlphaScreen); assay type: biochemical; conditions: ATP 25 μM solution; 25° C., 30 min; read-out: IC50 value, PDGFRα kinase inhibition
# T1 construct: 125 ng/ml of PDGFα intracellular domain protein (UPSTATE); purchased UPSTATE
# T1 sequence (P16234 550-1089 limits assumed): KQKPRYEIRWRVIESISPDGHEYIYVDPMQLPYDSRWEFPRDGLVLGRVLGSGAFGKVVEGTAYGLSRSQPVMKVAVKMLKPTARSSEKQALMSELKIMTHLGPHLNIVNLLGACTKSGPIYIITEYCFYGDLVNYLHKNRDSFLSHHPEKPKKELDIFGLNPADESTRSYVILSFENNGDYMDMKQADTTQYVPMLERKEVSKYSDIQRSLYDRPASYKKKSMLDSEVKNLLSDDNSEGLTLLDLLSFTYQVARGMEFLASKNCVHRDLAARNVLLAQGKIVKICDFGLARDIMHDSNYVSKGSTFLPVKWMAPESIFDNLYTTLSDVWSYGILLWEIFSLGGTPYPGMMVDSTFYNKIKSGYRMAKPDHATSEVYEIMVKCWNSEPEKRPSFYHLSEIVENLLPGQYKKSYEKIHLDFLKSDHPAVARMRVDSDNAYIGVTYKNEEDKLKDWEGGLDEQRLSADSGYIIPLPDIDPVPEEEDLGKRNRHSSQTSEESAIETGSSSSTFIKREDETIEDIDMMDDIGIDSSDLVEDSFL
# Protocol: (§1) A test compound dissolved in dimethyl sulfoxide (DMSO) was diluted with a buffer (50 mM Tris-HCl (pH 7.5), 5 mM MgCl2, 5 mM MnCl2, 2 mM dithiothreitol, 0.01% Tween-20). […] The reaction solution was allowed to stand at 25° C. for 16 hrs, and the wells were counted using a plate reader Fusion™ (PerkinElmer). The kinase inhibitory rate (%) of the test compound was calculated by the following formula: Inhibitory rate(%)=(1−(count of test compound−blank)÷(control−blank))×100
# (§2) The count of the solution reacted without addition of the compound was used as a “control”, and the count of the solution without the compound and ATP was used as a “blank”.
# [4] = target: T2, PDGFRβ intracellular domain protein (Homo sapiens, UniProt P09619); experiment: PDGFRβ kinase inhibitory activity (AlphaScreen); assay type: biochemical; conditions: ATP 50 μM solution; 25° C., 60 min; read-out: IC50 value, PDGFRβ kinase inhibition
# T2 construct: 125 ng/ml of PDGFRβ intracellular domain protein (UPSTATE); purchased UPSTATE
# T2 sequence (P09619 554-1106 limits assumed): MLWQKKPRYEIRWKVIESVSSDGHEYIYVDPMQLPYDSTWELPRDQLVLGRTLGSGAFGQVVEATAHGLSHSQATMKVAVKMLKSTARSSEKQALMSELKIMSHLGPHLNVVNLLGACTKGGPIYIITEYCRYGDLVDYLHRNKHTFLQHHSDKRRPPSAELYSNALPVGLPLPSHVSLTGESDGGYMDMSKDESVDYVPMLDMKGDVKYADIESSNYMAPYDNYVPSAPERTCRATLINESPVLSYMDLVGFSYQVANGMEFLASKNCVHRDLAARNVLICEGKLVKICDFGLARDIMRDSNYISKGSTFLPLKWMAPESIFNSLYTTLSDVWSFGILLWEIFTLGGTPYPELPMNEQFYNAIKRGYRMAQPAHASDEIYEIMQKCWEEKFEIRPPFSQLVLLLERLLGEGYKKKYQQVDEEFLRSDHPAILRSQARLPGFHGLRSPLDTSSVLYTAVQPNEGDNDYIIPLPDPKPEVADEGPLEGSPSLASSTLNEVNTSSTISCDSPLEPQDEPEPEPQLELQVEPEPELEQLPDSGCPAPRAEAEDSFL
# Protocol: as §1, with “hr,” for “hrs,”
# as §2
# Sequence of VEGFR2 intracellular domain protein (P35968 786-1356 limits assumed): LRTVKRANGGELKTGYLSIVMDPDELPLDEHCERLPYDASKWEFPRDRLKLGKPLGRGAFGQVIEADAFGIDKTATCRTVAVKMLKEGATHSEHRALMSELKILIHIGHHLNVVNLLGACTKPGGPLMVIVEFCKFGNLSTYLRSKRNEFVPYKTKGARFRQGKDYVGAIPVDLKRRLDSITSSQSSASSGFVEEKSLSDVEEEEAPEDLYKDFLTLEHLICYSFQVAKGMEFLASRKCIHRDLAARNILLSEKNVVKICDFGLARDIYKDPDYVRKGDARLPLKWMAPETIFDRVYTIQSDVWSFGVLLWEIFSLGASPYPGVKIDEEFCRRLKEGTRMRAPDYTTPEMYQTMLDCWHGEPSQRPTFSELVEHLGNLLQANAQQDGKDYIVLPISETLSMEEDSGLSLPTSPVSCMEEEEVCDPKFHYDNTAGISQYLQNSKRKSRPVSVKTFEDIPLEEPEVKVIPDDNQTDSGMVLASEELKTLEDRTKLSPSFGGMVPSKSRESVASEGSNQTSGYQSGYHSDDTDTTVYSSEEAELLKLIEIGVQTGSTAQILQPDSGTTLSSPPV
Compound,inhibition at 1 µM [1],IC50 [3],IC50 [4],IC50 [2]
"CCNC(=O)Nc1cn2cc(Oc3ccc(F)c(NC(=O)c4cc(C)nn4C)c3)ccc2n1 [Example 10, N-{5-[(2-{[(ethylamino)carbonyl]amino}imidazo[1,2-a]pyridin-6-yl)oxy]-2-fluorophenyl}-1,3-dimethyl-1H-pyrazole-5-carboxamide]",≥ 90%,≤ 500 nM,≤ 500 nM,≤ 500 nM
"Cc1cc(C(=O)Nc2cccc(Oc3ccc4nc(NC(=O)C5CC5)sc4n3)c2)n(C)n1 [Example 99, N-[3-({2-[(cyclopropylcarbonyl)amino][1,3]thiazolo[5,4-b]pyridin-5-yl}oxy)phenyl]-1,3-dimethyl-1H-pyrazole-5-carboxamide]",≥ 90%,≤ 500 nM,,≤ 500 nM
"Cc1cc(C(=O)Nc2cccc(Oc3ccc4nc(NC(=O)C5CC5)sc4c3)c2)n(C)n1 [Example 97-2, N-[3-({2-[(cyclopropylcarbonyl)amino]-1,3-benzothiazol-6-yl}oxy)phenyl]-1,3-dimethyl-1H-pyrazole-5-carboxamide]",≥ 90%,≤ 500 nM,,≤ 500 nM
"Cc1cc(C(=O)Nc2cccc(Oc3ccn4nc(NC(=O)C5CC5)nc4c3)c2)n(C)n1 [Example 96-4, N-[3-({2-[(cyclopropylcarbonyl)amino][1,2,4]triazolo[1,5-a]pyridine-7-yl}oxy)phenyl]-1,3-dimethyl-1H-pyrazole-5-carboxamide]",≥ 90%,≤ 500 nM,≤ 500 nM,≤ 500 nM
"Cc1cccnc1C(=O)Nc1cccc(Oc2ccc3nc(NC(=O)C4CC4)cn3c2)c1 [Example 7-4, N-[3-({2-[(cyclopropylcarbonyl)amino]imidazo[1,2-a]pyridin-6-yl}oxy)phenyl]-3-methylpyridine-2-carboxamide]",≥ 90%,≤ 500 nM,≤ 500 nM,≤ 500 nM
"Cc1cc(C(=O)Nc2cc(Oc3ccc4nc(NC(=O)C5CC5)nn4c3)ccc2C)n(C)n1 [Example 17-2, N-[5-({2-[(cyclopropylcarbonyl)amino][1,2,4]triazolo[1,5-a]pyridin-6-yl}oxy)-2-methylphenyl]-1,3-dimethyl-1H-pyrazole-5-carboxamide]",,≤ 500 nM,≤ 500 nM,≤ 500 nM
"Cc1cc(C(=O)Nc2cc(Oc3ccc4nc(NC(=O)C5CC5)nn4c3)ccc2F)n(C)n1 [Example 23-2, N-[5-({2-[(cyclopropylcarbonyl)amino][1,2,4]triazolo[1,5-a]pyridin-6-yl}oxy)-2-fluorophenyl]-1,3-dimethyl-1H-pyrazole-5-carboxamide]",≥ 90%,,,≤ 500 nM

# The next lines start with results.
inhibition at 1 µM [1],IC50 [3],IC50 [4],Compound,IC50 [2]
≥ 90%,≤ 500 nM,≤ 500 nM,"Cc1cc(C(=O)Nc2cc(Oc3ccc4nc(NC(=O)C5CC5)cn4c3)ccc2F)n(C)n1 [Example 9-2, N-[5-({2-[(cyclopropylcarbonyl)amino]imidazo[1,2-a]pyridin-6-yl}oxy)-2-fluorophenyl]-1,3-dimethyl-1H-pyrazole-5-carboxamide]",≤ 500 nM
≥ 90%,≤ 500 nM,≤ 500 nM,"Cc1nc(C(=O)Nc2cccc(Oc3ccc4nc(NC(=O)C5CC5)nn4c3)c2)c(C(F)(F)F)o1 [Example 22, N-[3-({2-[(cyclopropylcarbonyl)amino][1,2,4]triazolo[1,5-a]pyridin-6-yl}oxy)phenyl]-2-methyl-5-(trifluoromethyl)-1,3-oxazole-4-carboxamide]",≤ 500 nM
≥ 90%,≤ 500 nM,≤ 500 nM,"CCn1nc(C)cc1C(=O)Nc1cc(Oc2ccc3nc(NC(=O)C4CC4)nn3c2)ccc1F [Example 72, N-[5-({2-[(cyclopropylcarbonyl)amino][1,2,4]triazolo[1,5-a]pyridin-6-yl}oxy)-2-fluorophenyl]-1-ethyl-3-methyl-1H-pyrazole-5-carboxamide]",≤ 500 nM
